For the experiment, the system named is Lactobacillus plantarum ATCC 8014. Type of experiment: cell-based. Particulars: for IC50: liquid culture in MRS broth, 96-well plate, triplicate, start OD 0.05, 30 °C, 12-15 h, absorbance 600 nm, error = maximum variance across triplicates. On the procedure:
To evaluate the antibacterial activity of synthetic glycocin F (1b), [^27D-His]-GccF (1a) and glyco-mutants 10 and 11, the IC50 values against Lactobacillus plantarum ATCC 8014 were measured using a liquid culture assay. Synthetic GccF (1b) was used as the positive control (Table 1).
The glycopeptides were assayed for activity against Lactobacillus plantarum strain 8014, using a 96-well plate reader. Serial dilutions of the compound to be tested were prepared in MRS broth (Merck) and was added, in triplicate, to a 96-well plate containing an equal volume of L. plantarum 8014 at optical density 0.05. Additional positive controls (cells with no treatment) and negative controls (MRS media with no cells) were included, also in triplicate. Cells were grown in a Multiskan GO plate reader (Thermo Scientific) for 12-15 h, at 30 °C, and absorbance measured at 600 nm every 15 min. The growth of cells in each peptide concentration was modelled against the internal positive control, and the percentage inhibition derived at each time point as the difference between the optical density of the positive control and the optical density of cells within a given peptide concentration. Taking the maximum point from plots of percentage inhibition versus time for each peptide concentration allowed a polynom ial fit to be applied, and the concentration required to reach 50% inhibition derived.
Statistical error was taken as the maximum variance across the triplicates of each concentration in a […]
Figure 44. Th e results from testin g the bacterially-isola ted GccF, synthetic GccF (1b) and analo gues 1a, 10, and 11, plott ed as perc entage in hibit ion of Lact oba cillus plantarum ATCC 8014 gro wth vs concentra tion of the […]
(1 picture or pasted object on this page, not shown here)

Where [1] appears, read: from IC50 values, relative to IC50 1.13 nM.

Bridges are numbered along the chain shown (N, C = ends). The star is where a group is joined. βGlcNAc = CC(=O)N[C@@H]1[C@@H](O)[C@H](O)[C@@H](CO)O[C@H]1*

For “H-KPAWCWYTLAMCGAGYDC(βGlcNAc)GTCDYMYSHCFGIKHHSSGSSSYHC(βGlcNAc)-OH (disulfide 5-28, 12-21) [Compound 11]”, under setting [1], the “increase in activity relative to the native glycopeptide (fold)” value is on record as “approximately 2 fold”.
As a reminder, the IC50 is the concentration that gives 50% inhibition. As for “H-KPAWCWYTLAMCGAGYDS(βGlcNAc)GTCDYMYSHCFGIKHHSSGSSSYHC(βGlcNAc)-OH (disulfide 5-28, 12-21) [Compound 1b, glycocin F]”, the IC50 is 1.13 ± 0.2 nM.
Still for that read-out and setting: the figure for “H-KPAWCWYTLAMCGAGYDS(βGlcNAc)GTCDYMYSHCFGIKHHSSGSSSYHC(βGlcNAc)-OH (disulfide 5-28, 12-21) [Native, glycocin F]” is 2 ± 0.2 nM.
Regarding “H-KPAWCWYTLAMCGAGYDS(βGlcNAc)GTCDYMYSHCFGIKHHSSGSSSYHS(βGlcNAc)-OH (disulfide 5-28, 12-21) [Compound 10]”, the “decrease in activity compared to native glycocin F (fold)” value under setting [1] is recorded as “approximately 10 fold”.

The values are drawn from publication PMC5890784, “Total chemical synthesis of glycocin F and analogues: S-glycosylation confers improved antimicrobial activity” (Chemical Science, 2018).
